Measurements as given in ChEMBL document CHEMBL4190314, “Quinoline hybrids and their antiplasmodial and antimalarial activities” (Eur J Med Chem, 2017).
Values after ≈ are worked out from the molar mass of the structure shown.

Key:
[1] = tested on: Plasmodium falciparum; assay: Antimalarial activity against chloroquine-resistant Plasmodium falciparum FcB1/Columbia infected in human type A+ erythrocytes after 48 hrs by [3H]-hypoxanthine incorporation assay; assay type: functional, organism-based
[2] = tested on: Plasmodium falciparum; assay: Antimalarial activity against chloroquine-resistant Plasmodium falciparum FCR-3/Gambia infected in human type A+ erythrocytes after 48 hrs by [3H]-hypoxanthine incorporation assay; assay type: functional, organism-based
[3] = tested on: Plasmodium falciparum; assay: Antimalarial activity against chloroquine-resistant Plasmodium falciparum Palo Alto/Ouganda infected in human type A+ erythrocytes after 48 hrs by [3H]-hypoxanthine incorporation assay; assay type: functional, organism-based
[4] = tested on: Plasmodium falciparum; assay: Antimalarial activity against chloroquine-resistant Plasmodium falciparum FcM29 infected in human type A+ erythrocytes after 48 hrs by [3H]-hypoxanthine incorporation assay; assay type: functional, organism-based
[5] = tested on: Plasmodium falciparum; assay: Antimalarial activity against chloroquine-sensitive Plasmodium falciparum D6 infected in human type A+ erythrocytes after 48 hrs by [3H]-hypoxanthine incorporation assay; assay type: functional, organism-based
[6] = tested on: Plasmodium falciparum; assay: Antimalarial activity against chloroquine-sensitive Plasmodium falciparum F32 infected in human type A+ erythrocytes after 48 hrs by [3H]-hypoxanthine incorporation assay; assay type: functional, organism-based
[7] = tested on: Plasmodium falciparum; assay: Antimalarial activity against chloroquine-sensitive Plasmodium falciparum 3D7 infected in human erythrocytes after 72 hrs by SYBR Green-1 staining based fluorescence assay; assay type: functional, organism-based; conditions: 3D7, 72 h
[8] = tested on: Plasmodium falciparum; assay: Antimalarial activity against chloroquine-resistant Plasmodium falciparum K1 infected in human type A+ erythrocytes after 48 hrs by [3H]-hypoxanthine incorporation assay; assay type: functional, organism-based
[9] = tested on: Plasmodium falciparum; assay: Antimalarial activity against chloroquine-sensitive Plasmodium falciparum 3D7 infected in human type A+ erythrocytes after 48 hrs by [3H]-hypoxanthine incorporation assay; assay type: functional, organism-based
[10] = tested on: Plasmodium falciparum; assay: Antimalarial activity against chloroquine-resistant Plasmodium falciparum W2 infected in human red blood cells assessed as reduction in parasitic LDH activity by Malstat reagent based spectrophotometric method; assay type: functional, organism-based
[11] = tested on: Plasmodium falciparum; assay: Antimalarial activity against chloroquine-sensitive Plasmodium falciparum D6 infected in human red blood cells assessed as reduction in parasitic LDH activity by Malstat reagent based spectrophotometric method; assay type: functional, organism-based
[12] = tested on: Plasmodium falciparum; assay: Antimalarial activity against chloroquine-sensitive Plasmodium falciparum 3D7 infected in human type A+ erythrocytes after 24 hrs by [3H]-hypoxanthine incorporation assay; assay type: functional, organism-based
[13] = tested on: Plasmodium falciparum; assay: Antimalarial activity against chloroquine-resistant Plasmodium falciparum W2 infected in human type A+ erythrocytes after 24 hrs by [3H]-hypoxanthine incorporation assay; assay type: functional, organism-based
[14] = tested on: Plasmodium falciparum; assay: Antimalarial activity against […] Plasmodium falciparum D6; assay type: functional
[15] = tested on: Plasmodium falciparum; assay: Antimalarial activity against multiple drug-resistant Plasmodium falciparum C235; assay type: functional
[16] = Permeability from apical to basolateral side in MDCK cells; assay type: ADME, cell-based, Canis lupus familiaris; conditions: dog, read-out: permeability
[17] = Drug uptake in FVB mouse brain at 5 mg/kg, iv administered as single dose by UPLC-MS/MS based equilibrium dialysis method; assay type: ADME, organism-based; conditions: in vivo
[18] = Elimination half life in FVB mouse plasma at 5 mg/kg, iv administered as single dose; assay type: ADME, organism-based; conditions: read-out: beta t1/2 (converted)
[19] = tested on: Plasmodium falciparum; assay: Antimalarial activity against chloroquine-sensitive Plasmodium falciparum Nigerian infected in human red blood cells after 48 hrs by [3H]-hypoxanthine incorporation assay; assay type: functional, organism-based
[20] = tested on: Plasmodium falciparum; assay: Antimalarial activity against chloroquine-resistant Plasmodium falciparum FcB1 infected in human red blood cells after 48 hrs by [3H]-hypoxanthine incorporation assay; assay type: functional, organism-based
[21] = tested on: Plasmodium falciparum; assay: Antimalarial activity against chloroquine-resistant Plasmodium falciparum FcM29 infected in human red blood cells after 48 hrs by [3H]-hypoxanthine incorporation assay; assay type: functional, organism-based
[22] = tested on: Plasmodium falciparum; assay: Antimalarial activity against chloroquine-sensitive Plasmodium falciparum NF54 infected in human type A+ erythrocytes after 48 hrs by [3H]-hypoxanthine incorporation assay; assay type: functional, organism-based
[23] = tested on: Plasmodium falciparum; assay: Antimalarial activity against chloroquine-sensitive Plasmodium falciparum FCH-5-C2 infected in human type A+ erythrocytes after 48 hrs by [3H]-hypoxanthine incorporation assay; assay type: functional, organism-based
[24] = tested on: Plasmodium falciparum; assay: Antimalarial activity against chloroquine-sensitive Plasmodium falciparum HB3 infected in human type A+ erythrocytes after 48 hrs by [3H]-hypoxanthine incorporation assay; assay type: functional, organism-based
[25] = tested on: Plasmodium falciparum; assay: Antimalarial activity against chloroquine-sensitive Plasmodium falciparum RF MEF3 infected in human type A+ erythrocytes after 48 hrs by [3H]-hypoxanthine incorporation assay; assay type: functional, organism-based
[26] = tested on: Plasmodium falciparum; assay: Antimalarial activity against chloroquine-sensitive Plasmodium falciparum Ro73 infected in human type A+ erythrocytes after 48 hrs by [3H]-hypoxanthine incorporation assay; assay type: functional, organism-based
[27] = tested on: Plasmodium falciparum; assay: Antimalarial activity against chloroquine-resistant Plasmodium falciparum RFCR-3 infected in human type A+ erythrocytes after 48 hrs by [3H]-hypoxanthine incorporation assay; assay type: functional, organism-based
[28] = tested on: Plasmodium falciparum; assay: Antimalarial activity against chloroquine-resistant Plasmodium falciparum ItG2F6 infected in human type A+ erythrocytes after 48 hrs by [3H]-hypoxanthine incorporation assay; assay type: functional, organism-based
[29] = tested on: Plasmodium falciparum; assay: Antimalarial activity against chloroquine-resistant Plasmodium falciparum INDO infected in human type A+ erythrocytes after 48 hrs by [3H]-hypoxanthine incorporation assay; assay type: functional, organism-based
[30] = tested on: Plasmodium falciparum; assay: Antimalarial activity against chloroquine-resistant Plasmodium falciparum W2 infected in human type A+ erythrocytes after 48 hrs by [3H]-hypoxanthine incorporation assay; assay type: functional, organism-based
[31] = tested on: Plasmodium falciparum; assay: Antimalarial activity against chloroquine-resistant Plasmodium falciparum 7G8 infected in human type A+ erythrocytes after 48 hrs by [3H]-hypoxanthine incorporation assay; assay type: functional, organism-based
[32] = tested on: Plasmodium falciparum; assay: Antimalarial activity against chloroquine-resistant Plasmodium falciparum W2MEF infected in human type A+ erythrocytes after 48 hrs by [3H]-hypoxanthine incorporation assay; assay type: functional, organism-based
[33] = tested on: Plasmodium falciparum; assay: Antimalarial activity against chloroquine-resistant Plasmodium falciparum T9/94 infected in human type A+ erythrocytes after 48 hrs by [3H]-hypoxanthine incorporation assay; assay type: functional, organism-based
[34] = tested on: Plasmodium falciparum; assay: microbe, parasite or virus in culture; conditions: D10, 24 h
Description: Antimalarial activity against chloroquine-sensitive Plasmodium falciparum D10 after 24 hrs by [G-3H]-hypoxanthine incorporation assay

[35] = tested on: Plasmodium falciparum; assay: microbe, parasite or virus in culture; conditions: K1, 24 h
Description: Antimalarial activity against chloroquine-resistant Plasmodium falciparum K1 after 24 hrs by [G-3H]-hypoxanthine incorporation assay

[36] = tested on: Plasmodium falciparum; assay: Antimalarial activity against chloroquine-sensitive Plasmodium falciparum 3D7; conditions: 3D7, read-out: ED50
[37] = tested on: Plasmodium falciparum; assay: Antimalarial activity against chloroquine-resistant Plasmodium falciparum K1; assay type: functional; conditions: read-out: ED50 (the source's name)

CC1(C)COC2(CCC(N[C@H]3CC[C@H](Nc4ccnc5cc(Cl)ccc45)CC3)CC2)OO1 (some centres not stated) gave an IC50 [1] of 7 to 24 nM, an IC50 [2] of 7 to 24 nM and an IC50 [3] of 7 to 24 nM. It also gave an IC50 [4] of 7 to 24 nM, an IC50 [5] of 7 to 24 nM and an IC50 [6] of 7 to 24 nM.

Work on C=C[C@H]1CN2CC[C@H]1C[C@H]2[C@H](OC(=O)CNC(=O)c1cn(C2CC2)c2cc(N3CCN(CC)CC3)c(F)cc2c1=O)c1ccnc2ccc(OC)cc12 yielded an IC50 [7] of 12 to 207 nM.

For O=C1OC(CN2CCN(c3ccccc3F)CC2)CN1CCCNc1ccnc2cc(Cl)ccc12 (configuration not stated), the IC50 [8] was 62 to 430 nM and the IC50 [9] was 62 to 430 nM.

O=C1OC(CN2CCN(c3ccc(F)cc3)CC2)CN1CCNc1ccnc2cc(Cl)ccc12 (configuration not stated) gave an IC50 [8] of 62 to 430 nM and an IC50 [9] of 62 to 430 nM.

In the case of Cc1cccc(C)c1Nc1nc(OCc2cn(CCNc3ccnc4cc(Cl)ccc34)nn2)nc(N(C)C)n1, the IC50 [10] is reported as 730 nM and the IC50 [11] is reported as 580 nM.

Compound C=C[C@H]1CN2CC[C@H]1C[C@H]2[C@H](OC(=O)[C@H](Cc1ccccc1)NC(=O)c1cn2c3c(c(N4CCN(C)CC4)c(F)cc3c1=O)OC[C@@H]2C)c1ccnc2ccc(OC)cc12 has an IC50 [7] of 12 to 207 nM.

In the case of O[C@@]12OOC3(C=C1C[C@@H]1C=C[C@H]2C1)CCN(c1ccnc2cc(Cl)ccc12)CC3, the IC50 [12] is reported as 6050 to 6750 nM and the IC50 [13] is reported as 6050 to 6750 nM.

With C=C[C@H]1CN2CC[C@H]1C[C@H]2[C@H](OC(=O)[C@H](C)NC(=O)c1cn(CC)c2nc(C)ccc2c1=O)c1ccnc2ccc(OC)cc12 the IC50 [7] was 12 to 207 nM.

O=C1OC(CN2CCN(c3ccccc3F)CC2)CN1CCCCCCNc1ccnc2cc(Cl)ccc12 (configuration not stated) gave an IC50 [8] of 62 to 430 nM and an IC50 [9] of 62 to 430 nM.

C=C[C@H]1CN2CC[C@H]1C[C@H]2[C@H](OC(=O)[C@@H](NC(=O)c1cn(C2CC2)c2cc(N3CCN(CC)CC3)c(F)cc2c1=O)[C@@H](C)CC)c1ccnc2ccc(OC)cc12 gave an IC50 [7] of 12 to 207 nM.

CN(CCNCC(O)c1cc(C(F)(F)F)nc2c(C(F)(F)F)cccc12)CC(O)c1cc(C(F)(F)F)nc2c(C(F)(F)F)cccc12 (configuration not stated) gave an IC90 [14] of 0.022 to 0.08 µg/mL (≈ 0.032 to 0.116 µM), an IC90 [15] of 0.022 to 0.08 µg/mL (≈ 0.032 to 0.116 µM) and a Papp A→B [16] of 0.14 ×10⁻⁶ cm/s. It also gave a Drug uptake [17] of 97 ng/g and a half-life [18] of 13 h.

Compound C=C[C@H]1CN2CC[C@H]1C[C@H]2[C@H](OC(=O)CNC(=O)c1cn2c3c(c(N4CCN(C)CC4)c(F)cc3c1=O)OC[C@@H]2C)c1ccnc2ccc(OC)cc12 has an IC50 [7] of 12 to 207 nM.

For COc1ccccc1N1CCN(CC2CN(CCNc3ccnc4cc(Cl)ccc34)C(=O)O2)CC1 (configuration not stated), the IC50 [8] was 62 to 430 nM and the IC50 [9] was 62 to 430 nM.

With Fc1ccc(C(/C=C/C=C(\c2ccc(F)cc2)N2CCN(c3ccnc4cc(Cl)ccc34)CC2)=[N+]2CCN(c3ccnc4cc(Cl)ccc34)CC2)cc1 the IC50 [19] was 350 nM, the IC50 [20] was 444 nM and the IC50 [21] was 468 nM.

For O=C1OC(CN2CCN(c3ccccc3F)CC2)CN1CCCCNc1ccnc2cc(Cl)ccc12 (configuration not stated), the IC50 [8] was 62 to 430 nM and the IC50 [9] was 62 to 430 nM.

With O=C1OC(CN2CCN(c3ccccc3F)CC2)CN1CCNc1ccnc2cc(Cl)ccc12 (configuration not stated) the IC50 [8] was 62 to 430 nM and the IC50 [9] was 62 to 430 nM.

Compound COc1ccc(OCc2cn(CCNc3ccnc4cc(Cl)ccc34)nn2)cc1 has an IC50 [10] of 1120 nM and an IC50 [11] of 650 nM.

O=C1OC(CN2CCN(c3ccccc3Cl)CC2)CN1CCNc1ccnc2cc(Cl)ccc12 (configuration not stated) showed an IC50 [8] of 62 to 430 nM and an IC50 [9] of 62 to 430 nM.

CO[C@@]12OOC3(C=C1C[C@@H]1C=C[C@H]2C1)CCN(c1ccnc2cc(Cl)ccc12)CC3 gave an IC50 [12] of 185 to 240 nM and an IC50 [13] of 185 to 240 nM.

Compound O=C1OC(CN2CCN(c3ccccc3)CC2)CN1CCNc1ccnc2cc(Cl)ccc12 (configuration not stated) has an IC50 [8] of 62 to 430 nM and an IC50 [9] of 62 to 430 nM.

Compound O[C@@]12OOC3(C=C1C[C@@H]1CC[C@H]2C1)CCN(c1ccnc2cc(Cl)ccc12)CC3 has an IC50 [12] of 1400 to 2450 nM and an IC50 [13] of 1400 to 2450 nM.

In the case of Clc1ccc2c(N[C@@H]3CCCC[C@H]3Nc3ccnc4cc(Cl)ccc34)ccnc2c1, the IC50 [22] is reported as 6 nM, the IC50 [23] is reported as 4 to 13 nM and the IC50 [24] is reported as 4 nM. It also gave an IC50 [25] of 4 to 13 nM, an IC50 [26] of 4 to 13 nM and an IC50 [27] of 4 to 13 nM. It also gave an IC50 [28] of 4 to 13 nM, an IC50 [29] of 4 to 13 nM and an IC50 [30] of 10 nM. It also gave an IC50 [31] of 4 to 13 nM, an IC50 [32] of 4 to 13 nM and an IC50 [33] of 4 to 13 nM. The IC50 [8] was 13 nM.

Compound CCN(CC)CCCC(C)Nc1cc(CCCCCCCCCCc2cc(NC(C)CCCN(CC)CC)c3ccccc3n2)nc2ccccc12 (configuration not stated) has an IC50 [34] of 43 nM.

In the case of O[C@@H](c1cc(C(F)(F)F)nc2c(C(F)(F)F)cccc12)[C@H]1CCCCN1 [(S,R)-MEFLOQUINE], the Drug uptake [17] is reported as 1600 ng/g, the half-life [18] is reported as 23 h and the IC50 [34] is reported as 90 nM. The IC50 [35] was 300 nM.

Compound C[C@@H]1CC[C@H]2[C@@H](C)C(=O)O[C@@H]3O[C@@]4(C)CC[C@@H]1[C@]32OO4 [ARTEMISININ] has an IC50 [13] of 19 nM.

For CCN(CC)CCCC(C)Nc1ccnc2cc(Cl)ccc12 (configuration not stated) [CHLOROQUINE], the EC50 [36] was 20 nM and the EC50 [37] was 1030 nM.

In the case of C[C@H]1COc2c(N3CCN(C)CC3)c(F)cc3c(=O)c(C(=O)O)cn1c23 [LEVOFLOXACIN], the IC50 [7] is reported as > 20000 nM.
